These are literature values, as cited in patent US6511968B1, “Combination therapy for treating, preventing, or reducing the risks associated with acute coronary ischemic syndrome and related conditions” (Merck & Co., Inc., priority 1998, dated 2003).

One series has as its target GP IIb/IIIa (Homo sapiens, UniProt P05106+P08514). The following applies: for selectivity for GPIIb/IIIa: administered intravenously.
For the next series, the target named is αvβ3 (Homo sapiens, UniProt P05106+P06756).
The conditions of series [1]: prodrug.
The subject of a further series is platelet aggregation. The following applies: increasing concentrations added to platelet-rich plasma in vitro or incremental doses in vivo.

Where a name gives a salt, the structure may show the parent alone. Where a SMILES comes first, the peptide text is derived from it. Bridges are numbered along the chain shown (N, C = ends). [ ]: non-standard residue; d: D form. hArg = N=C(N)NCCCC[C@H](N)C(=O)O; Mpa = O=C(O)CCS

Sequence of GP IIb/IIIa (P08514 32-887 limits assumed): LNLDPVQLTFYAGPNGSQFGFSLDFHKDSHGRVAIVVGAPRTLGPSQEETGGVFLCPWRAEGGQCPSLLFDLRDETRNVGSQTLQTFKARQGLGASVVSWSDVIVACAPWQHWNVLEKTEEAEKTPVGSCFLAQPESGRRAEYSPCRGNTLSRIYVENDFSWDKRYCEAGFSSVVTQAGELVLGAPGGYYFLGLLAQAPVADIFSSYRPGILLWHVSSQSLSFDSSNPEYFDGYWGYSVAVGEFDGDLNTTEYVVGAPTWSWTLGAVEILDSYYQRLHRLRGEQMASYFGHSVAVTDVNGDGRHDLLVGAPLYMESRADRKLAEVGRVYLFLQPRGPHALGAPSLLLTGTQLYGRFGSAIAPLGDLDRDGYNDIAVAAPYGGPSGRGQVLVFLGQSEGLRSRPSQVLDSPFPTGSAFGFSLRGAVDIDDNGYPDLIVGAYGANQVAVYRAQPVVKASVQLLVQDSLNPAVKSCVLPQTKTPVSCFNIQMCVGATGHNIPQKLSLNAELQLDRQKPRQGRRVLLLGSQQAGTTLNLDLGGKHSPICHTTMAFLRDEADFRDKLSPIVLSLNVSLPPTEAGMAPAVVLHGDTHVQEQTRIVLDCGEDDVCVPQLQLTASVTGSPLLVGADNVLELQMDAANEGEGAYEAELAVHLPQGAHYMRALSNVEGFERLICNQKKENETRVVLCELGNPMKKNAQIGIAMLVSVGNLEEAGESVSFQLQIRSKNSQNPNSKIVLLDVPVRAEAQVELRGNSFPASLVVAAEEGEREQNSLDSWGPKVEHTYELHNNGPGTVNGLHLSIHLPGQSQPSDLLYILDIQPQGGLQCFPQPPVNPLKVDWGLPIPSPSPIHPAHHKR
Sequence of GP IIb/IIIa (P08514 891-1039 partner limits assumed): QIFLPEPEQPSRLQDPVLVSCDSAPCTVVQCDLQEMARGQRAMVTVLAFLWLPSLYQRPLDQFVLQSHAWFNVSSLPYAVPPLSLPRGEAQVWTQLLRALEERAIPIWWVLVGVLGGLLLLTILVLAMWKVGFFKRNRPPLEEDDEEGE
Sequence of GP IIb/IIIa (P05106 27-788): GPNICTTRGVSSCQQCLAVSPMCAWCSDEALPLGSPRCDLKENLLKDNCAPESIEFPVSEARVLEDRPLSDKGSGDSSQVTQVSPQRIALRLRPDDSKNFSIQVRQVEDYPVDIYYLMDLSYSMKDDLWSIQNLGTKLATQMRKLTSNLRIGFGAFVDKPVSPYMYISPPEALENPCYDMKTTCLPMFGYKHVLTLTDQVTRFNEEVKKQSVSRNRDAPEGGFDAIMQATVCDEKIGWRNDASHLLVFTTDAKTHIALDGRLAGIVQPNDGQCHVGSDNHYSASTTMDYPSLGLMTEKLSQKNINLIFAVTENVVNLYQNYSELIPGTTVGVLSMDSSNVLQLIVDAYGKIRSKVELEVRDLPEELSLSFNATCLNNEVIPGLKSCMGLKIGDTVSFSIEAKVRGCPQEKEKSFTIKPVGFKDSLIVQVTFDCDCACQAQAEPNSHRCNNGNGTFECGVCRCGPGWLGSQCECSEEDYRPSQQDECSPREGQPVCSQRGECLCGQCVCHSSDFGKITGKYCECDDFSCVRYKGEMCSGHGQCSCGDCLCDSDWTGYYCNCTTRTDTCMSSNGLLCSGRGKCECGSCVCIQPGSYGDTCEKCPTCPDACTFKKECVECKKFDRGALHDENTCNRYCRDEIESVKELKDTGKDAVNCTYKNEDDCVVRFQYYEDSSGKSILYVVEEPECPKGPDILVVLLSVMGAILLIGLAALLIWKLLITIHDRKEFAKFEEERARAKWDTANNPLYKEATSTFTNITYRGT
Sequence of αvβ3 (P06756 31-889 limits assumed): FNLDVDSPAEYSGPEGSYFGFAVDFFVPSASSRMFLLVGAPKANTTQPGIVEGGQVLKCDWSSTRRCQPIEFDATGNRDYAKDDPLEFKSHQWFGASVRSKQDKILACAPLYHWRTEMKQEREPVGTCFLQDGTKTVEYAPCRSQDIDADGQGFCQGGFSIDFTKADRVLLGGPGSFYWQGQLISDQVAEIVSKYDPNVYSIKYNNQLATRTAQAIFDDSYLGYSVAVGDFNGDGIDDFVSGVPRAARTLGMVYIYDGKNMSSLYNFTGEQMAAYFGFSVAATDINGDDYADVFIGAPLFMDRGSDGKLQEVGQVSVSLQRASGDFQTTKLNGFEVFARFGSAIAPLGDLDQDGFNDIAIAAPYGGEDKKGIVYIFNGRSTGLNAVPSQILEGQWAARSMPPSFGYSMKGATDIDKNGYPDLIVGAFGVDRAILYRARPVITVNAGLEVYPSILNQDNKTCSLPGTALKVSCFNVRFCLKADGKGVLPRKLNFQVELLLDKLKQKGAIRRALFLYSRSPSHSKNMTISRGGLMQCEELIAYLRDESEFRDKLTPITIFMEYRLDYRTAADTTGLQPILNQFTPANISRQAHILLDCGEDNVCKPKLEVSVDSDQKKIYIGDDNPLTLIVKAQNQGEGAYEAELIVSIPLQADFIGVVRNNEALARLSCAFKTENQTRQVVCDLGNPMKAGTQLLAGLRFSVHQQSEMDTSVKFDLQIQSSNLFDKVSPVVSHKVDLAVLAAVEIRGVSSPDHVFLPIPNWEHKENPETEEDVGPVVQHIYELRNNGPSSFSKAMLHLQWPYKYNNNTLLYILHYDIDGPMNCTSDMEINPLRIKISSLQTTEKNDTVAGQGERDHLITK
Sequence of αvβ3 (P06756 891-1048 partner limits assumed): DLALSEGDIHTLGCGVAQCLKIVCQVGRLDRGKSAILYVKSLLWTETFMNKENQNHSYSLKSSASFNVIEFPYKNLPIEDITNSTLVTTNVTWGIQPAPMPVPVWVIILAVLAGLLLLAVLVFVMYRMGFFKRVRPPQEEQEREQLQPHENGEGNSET
Sequence of αvβ3 (P05106 27-788): as the sequence (P05106 27-788) above

Regarding `N=C(N)NCCCC[C@@H]1NC(=O)CCSSC[C@@H](C(N)=O)NC(=O)[C@@H]2CCCN2C(=O)[C@H](Cc2c[nH]c3ccccc23)NC(=O)[C@H](CC(=O)O)NC(=O)CNC1=O` [Integrelin] ([Mpa][hArg]GDWPC-NH2; disulfide 1-7), the “inhibition of ligand binding to GP IIb/IIIa / receptor blockade” value at GP IIb/IIIa was “inhibits ligand binding to GP IIb/IIIa”. The “effect on ligand binding to αvβ3 / receptor blockade” value at αvβ3 is recorded as “very little effect”. Turning to `CCCCS(=O)(=O)N[C@@H](Cc1ccc(OCCCCC2CCNCC2)cc1)C(=O)O` [MK-383, 2-S-(n-Butylsulfonylamino)-3[4-piperidin-4-yl)butyloxyphenyl]propionic acid hydrochloride], the “selectivity for GPIIb/IIIa” value on GP IIb/IIIa is on record as “selective for GPIIb/IIIa”. With `N=C(N)c1ccc(C(=O)N[C@@H](Cc2ccc(O)cc2)C(=O)N2CCC(OCC(=O)O)CC2)cc1` [Ro 44-9883], the “selectivity for GPIIb/IIIa” value at GP IIb/IIIa is reported as “selective for GPIIb/IIIa”. As to `C#C[C@H](CC(=O)OCC)NC(=O)CCC(=O)Nc1ccc(C(=N)N)cc1` [SC54684, ethyl 3-[[4-[[4-(aminoiminomethyl)phenyl]amino]-1,4-dioxobutyl]amino]-4-pentynoate], the oral bioavailability result in series [1] was “high oral bioavailability”.

B1: c7E3 Fab: c7E3 Fab form of the 7E3 antibody (antibody, chains of the INN, looked up, V domains shown)
VH: EVQLQQSGTVLARPGASVKMSCEASGYTFTNYWMHWVKQRPGQGLEWIGAIYPGNSDTSYIQKFKGKAKLTAVTSTTSVYMELSSLTNEDSAVYYCTLYDGYYVFAYWGQGTLVTVSA
VL: EIVLTQSPVTLSVTPGDSVSLSCRASRDISNNLHWFQQTSHESPRLLIKYASQSMSGIPSRFSGSGSGTDFTLSINSVETEDFGMYFCQQTNSWPYTFGGGTKLEIK
modifications: Fab
notes: c7E3 Fab form of the 7E3 antibody
With B1, the platelet aggregation result in the series with platelet aggregation is recorded as “profoundly inhibited”.
